This is an account of results in patent US5902812A, “Pharmaceutical piperazine compounds” (Xenova Limited, priority 1994, dated 1999).

The assay concerns the target PAI-1 (Homo sapiens, UniProt P05121). As to the kind of experiment: biochemical. Particulars: for inhibition at 20 µM: 20 μM (third part of Table 1); for inhibition at 20 µM / inhibition at 100 µM / inhibition at 50 µM / inhibition at 6.25 µM / inhibition at 12.5 µM / inhibition at 25 µM: read-out: Degree of inhibition in PAI chromogenic substrate assay; for IC50: PAI chromogenic substrate assay, read-out: IC50.

Counter-ions that a name gives are not always drawn. Like-named read-outs stand apart in the source and are kept apart here.

Sequence of PAI-1 (P05121 24-402): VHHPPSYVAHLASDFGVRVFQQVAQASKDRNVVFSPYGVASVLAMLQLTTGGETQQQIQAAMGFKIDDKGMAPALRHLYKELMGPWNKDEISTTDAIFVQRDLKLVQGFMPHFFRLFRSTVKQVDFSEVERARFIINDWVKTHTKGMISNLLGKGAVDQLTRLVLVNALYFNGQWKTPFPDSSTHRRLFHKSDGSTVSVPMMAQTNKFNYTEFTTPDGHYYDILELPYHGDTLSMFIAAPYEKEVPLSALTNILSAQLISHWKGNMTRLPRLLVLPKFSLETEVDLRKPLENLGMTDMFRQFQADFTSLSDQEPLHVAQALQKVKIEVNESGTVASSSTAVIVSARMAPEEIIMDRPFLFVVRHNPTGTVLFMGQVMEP
Description: In this assay, a compound is incubated with PAI-1 prior to addition to the tPA assay system. Inhibition of PAI-1 results in the production of plasmin from plasminogen. In turn, plasmin cleaves the chromogenic substrate S2251 (Kabi Vitrum) producing pNA (p-nitroaniline) which is detected spectrophotometrically at 405 nm (K. Nilsson et al, Fibrinolysis (1987) 1, 163-168).
Compounds of formula (A) were tested in a PAI chromogenic substrate assay. In the assay (K.Nilsson, Fibrinolysis (1987) 1, 163-168) each compound was incubated with PAI-1 prior to addition to the tPA assay system. […] In turn, the plasmin cleaved the chromogenic substrate S2251 (Kabi-Vitrum) producing pNA (p-nitroaniline) which was detected spectrophotometrically at 405 nm.

For the compound `COc1ccccc1/C=c1\[nH]c(=O)/c(=C/c2ccc(OCCCN(C)C)cc2)[nH]c1=O` [Compound 5241, (3Z,6Z)-6-(4-(3-Dimethylaminopropoxy)benzylidene)-3-(2-methoxybenzylidene)-2,5-piperazinedione], the inhibition at 20 µM is 1%. The inhibition at 100 µM (100 μM (third part of Table 1)) is 21%.
Turning to `CN(C)CCCOc1ccc(/C=c2\[nH]c(=O)/c(=C/c3ccc(C(=O)Nc4ccccc4)cc3)[nH]c2=O)cc1` [Compound 5343, 4-((3Z,6Z)-6-(4-(3-Dimethylaminopropoxy)benzylidene)-2,5-dioxo-3-piperazinylidene)methylbenzanilide], the inhibition at 20 µM was 20%.
With `CN(C)CCCOc1ccc(/C=c2\[nH]c(=O)/c(=C/c3ccccc3C(F)(F)F)[nH]c2=O)cc1` [Compound 5251, (3Z,6Z)-6-(4-(3-Dimethylaminopropoxy)benzylidene)-3-(2-trifluoromethylbenzylidene)-2,5-piperazinedione], the IC50 was found to be 67 µM. Also, the inhibition at 100 µM (100 μM (third part of Table 1)) is 71%.
On to `CN(C)CCOc1ccc(/C=c2\[nH]c(=O)/c(=C/c3ccccc3)[nH]c2=O)cc1` [Compound 1956], for which the Degree of inhibition in PAI chromogenic substrate assay turned out to be 31% (6.25 μM); 65% (12.5 μM); 69% (25 μM); 69% (50 μM); 61% (100 μM).
As to `CN(C)CCCOc1ccc(/C=c2\[nH]c(=O)/c(=C/c3ccc4c(c3)OCO4)[nH]c2=O)cc1` [Compound 5201, (3Z,6Z)-6-(4-(3-Dimethylaminopropoxy)benzylidene)-3-(3,4-methylenedioxybenzylidene)-2,5-piperazinedione], the inhibition at 20 µM came out at 43% and the IC50 is 2.5 µM. Further, the inhibition at 100 µM (100 μM (third part of Table 1)) was determined as 47%.
`CN(C)CCOCc1ccc(/C=c2\[nH]c(=O)/c(=C/c3ccccc3Br)[nH]c2=O)cc1` [Compound 5070.HCl, (3Z,6Z)-3-(2-Bromobenzylidene)-6-(4-(2-dimethylaminoethoxymethyl)benzylidene)-2,5-piperazinedione]: the inhibition at 20 µM turned out to be 6%. Moreover, the inhibition at 50 µM (50 μM (third part of Table 1)) is 6%. For the same compound, the inhibition at 100 µM (100 μM (third part of Table 1)) amounted to 40%.
Take `CN(C)CCCOc1ccc(/C=c2\[nH]c(=O)/c(=C/c3cccc(Cl)c3)[nH]c2=O)cc1` [Compound 5237]: the inhibition at 20 µM turned out to be 72% and the IC50 turned out to be 4 µM. The compound further displayed a Degree of inhibition in PAI chromogenic substrate assay (100 μM (third part of Table 1), 100 µM) of 67%.
On to `Cc1ccccc1/C=c1\[nH]c(=O)/c(=C/c2ccc(OCCCN(C)C)cc2)[nH]c1=O` [Compound 5186, (3Z,6Z)-6-(4-(3-Dimethylaminopropoxy)benzylidene)-3-(2-methylbenzylidene)-2,5-piperazinedione], for which the inhibition at 20 µM came to 10%. Besides, under “100 μM (third part of Table 1)”, the inhibition at 100 µM was found to be 46%.
As to `CN(C)CCCOc1ccc(/C=c2\[nH]c(=O)/c(=C/c3ccccc3Br)[nH]c2=O)cc1` [Compound 5060.HCl, (3Z,6Z)-3-(2-Bromobenzylidene)-6-(4-(3-dimethylaminopropoxy)benzylidene)-2,5-piperazinedione], the inhibition at 20 µM came to 52%. The inhibition at 50 µM (50 μM (third part of Table 1)) was determined as 65%. Also, where the note is “100 μM (third part of Table 1)”, the inhibition at 100 µM was 75%.
Regarding `CN(C)CCCOc1ccc(/C=c2\[nH]c(=O)/c(=C/c3cccc(F)c3)[nH]c2=O)cc1` [Compound 5373, (3Z,6Z)-6-(4-(3-Dimethylaminopropoxy)benzylidene)-3-(3-fluorobenzylidene)-2,5-piperazinedione], the IC50 stood at 13 µM.
As for `CN(C)CCOc1ccc(/C=c2\[nH]c(=O)/c(=C/c3ccccc3)[nH]c2=O)c(OCCN(C)C)c1` [Compound 1969], for the setting “6.25 μM”, the inhibition at 6.25 µM is 2%. In addition, the inhibition at 12.5 µM (12.5 μM) came out at 0%. For the same compound, the Degree of inhibition in PAI chromogenic substrate assay turned out to be 6% (25 μM), 20% (50 μM) and 52% (100 μM).
With `CC(=O)Nc1ccccc1/C=c1\[nH]c(=O)/c(=C/c2ccc(OCCCN(C)C)cc2)[nH]c1=O` [Compound 5259], the inhibition at 20 µM is 10%.
Turning to `CN(C)CCOc1ccc(/C=c2\[nH]c(=O)/c(=C/c3ccc(F)cc3F)[nH]c2=O)cc1` [Compound 1977, (3Z,6Z)-3-(2,4-Difluorobenzylidene)-6-(4-(2-dimethylaminoethoxy)benzylidene)-2,5-piperazinedione], under “6.25 μM”, the inhibition at 6.25 µM is 0%. Further, the inhibition at 12.5 µM (12.5 μM) was 20%. Moreover, for the setting “25 μM”, the inhibition at 25 µM is 47%. In addition, the inhibition at 50 µM (50 μM) is 47%. Besides, for the setting “100 μM”, the inhibition at 100 µM was determined as 54%.
Regarding `CN(C)CCCOc1ccc(/C=c2\[nH]c(=O)/c(=C/c3ccc(C(=O)NCc4ccccc4)cc3)[nH]c2=O)cc1` [Compound 5344, N-Benzyl-4-((3Z,6Z)-6-(4-(3-Dimethylaminopropoxy)benzylidene)-2,5-dioxo-3-piperazinylidene)methylbenzamide], the inhibition at 20 µM is 40%.
On to `CN(C)CCCN(CCCN(C)C)Cc1ccc(/C=c2\[nH]c(=O)/c(=C/c3ccccc3)[nH]c2=O)cc1` [Compound 1981, (3Z,6Z)-3-Benzylidene-6-(4-bis(3-dimethylaminopropyl)aminomethylbenzylidene)-2,5-piperazinedione], for which the Degree of inhibition in PAI chromogenic substrate assay worked out at 7% (12.5 μM), 26% (25 μM), 41% (50 μM) and 51% (100 μM).
For the compound `CN(C)CCSCc1ccc(/C=c2\[nH]c(=O)/c(=C/c3ccccc3)[nH]c2=O)cc1` [Compound 5058, (3Z,6Z)-6-Benzylidene-3-(4-(2-Dimethylaminoethylthiomethyl)benzylidene)-2,5-piperazinedione], the inhibition at 20 µM is 75%. Besides, the inhibition at 50 µM (50 μM (third part of Table 1)) amounted to 68%. Further, the inhibition at 100 µM (100 μM (third part of Table 1)) stood at 67%.
For `CCN(CC)CCOc1ccc(/C=c2\[nH]c(=O)/c(=C/c3ccccc3)[nH]c2=O)cc1` [Compound 5065.HCl] the same measures were 12%, 80% and 85%.
For the compound `CN(C)CCOc1ccc(/C=c2\[nH]c(=O)/c(=C/c3ccc(OCCN(C)C)cc3)[nH]c2=O)cc1` [Compound 1962, (3Z,6Z)-3,6-Di-(4-(2-dimethylaminoethoxy)benzylidene)-2,5-piperazinedione dihydrochloride], the inhibition at 6.25 µM (6.25 μM) amounted to 1%. For the same compound, the inhibition at 12.5 µM (12.5 μM) was determined as 1%. The inhibition at 25 µM (25 μM) was found to be 1%. The inhibition at 50 µM (50 μM) turned out to be 2%. The inhibition at 100 µM (100 μM) amounted to 2%.
As to `CN(C)CCOc1ccc(/C=c2\[nH]c(=O)/c(=C/c3ccccc3)[nH]c2=O)c(OCCN(C)C)c1` [Compound 1984], the Degree of inhibition in PAI chromogenic substrate assay reads like this: (12.5 μM) 0%; (25 μM) 0%; (50 μM) 0%; (100 μM) 17%.
`CN(C)CCCOc1ccc(/C=c2\[nH]c(=O)/c(=C/c3cccc(OC(F)(F)F)c3)[nH]c2=O)cc1` [Compound 5374, (3Z,6Z)-6-(4-(3-Dimethylaminopropoxy)benzylidene)-3-(3-trifluoromethoxybenzylidene)-2,5-piperazinedione]: the IC50 amounted to 15 µM.
As for `CN(C)CCCOc1ccc(/C=c2\[nH]c(=O)/c(=C/c3ccc([N+](=O)[O-])cc3)[nH]c2=O)cc1` [Compound 5230, (3Z,6Z)-3-(4-(3-dimethylaminopropoxy)benzylidene)-6-(4-nitrobenzylidene)-2,5-piperazinedione], the inhibition at 20 µM turned out to be 30% and the IC50 came out at 0.75 µM. Besides, the inhibition at 100 µM (100 μM (third part of Table 1)) is 9%.
Regarding `CN(C)CCCOc1ccc(/C=c2\[nH]c(=O)/c(=C/c3ccc(Cl)c(Cl)c3)[nH]c2=O)cc1` [Compound 5236], the IC50 stood at 2.8 µM.
Turning to `CN(C)CCOc1ccc(/C=c2\[nH]c(=O)/c(=C/c3ccccc3)[nH]c2=O)cc1` [Compound 1954, (3Z,6Z)-6-Benzylidene-3-(4-(2-dimethylaminoethoxy)benzylidene)-2,5-piperazinedione], the Degree of inhibition in PAI chromogenic substrate assay stood at 37% (6.25 μM); 57% (12.5 μM); 67% (25 μM); 43% (50 μM); 16% (100 μM).
`CN(C)CCCOc1ccc(/C=c2\[nH]c(=O)/c(=C/c3ccc(Cl)c([N+](=O)[O-])c3)[nH]c2=O)cc1` [Compound 5398, (3Z,6Z)-3-(4-Chloro-3-nitrobenzylidene)-6-(4-(3-dimethylaminopropoxy)benzylidene)-2,5-piperazinedione]: the inhibition at 20 µM stood at 54% and the IC50 was 4.2 µM.
`CN(C)CCCOc1ccc(/C=c2\[nH]c(=O)/c(=C/c3cccc([N+](=O)[O-])c3)[nH]c2=O)cc1` [Compound 5231, (3Z,6Z)-6-(4-(3-Dimethylaminopropoxy)benzylidene)-3-(3-nitrobenzylidene)-2,5-piperazinedione]: the inhibition at 20 µM amounted to 42% and the IC50 is 1.5 µM. For the same compound, the inhibition at 100 µM (100 μM (third part of Table 1)) is 36%.
On the same counts, the results for `CCCCOc1ccc(/C=c2\[nH]c(=O)/c(=C/c3ccc(OCCCN(C)C)cc3)[nH]c2=O)cc1` [Compound 5250] are 10%, 14 µM and 25%.
On to `CN(C)CCCOc1ccc(/C=c2\[nH]c(=O)/c(=C/c3ccc4c(c3)OCO4)[nH]c2=O)cc1` [Compound 5229, (3Z,6Z)-6-(4-(3-Dimethylaminopropoxy)benzylidene)-3-(3,4-methylenedioxybenzylidene)-2,5-piperazinedione], for which the IC50 worked out at 3.7 µM.

For orientation: inhibition means the share of the control response that was lost under treatment. In general, IC50 refers to the concentration that inhibits the measured activity by half.
